For nine compounds, MIC and Ratio results are on record in ChEMBL document CHEMBL3608244, “Left-Hand Side Exploration of Novel Bacterial Topoisomerase Inhibitors to Improve Selectivity against hERG Binding” (ACS Med Chem Lett, 2015).

Type in all cases: functional
Experiment [1] relates to Mycobacterium tuberculosis. Nature of the experiment: Antimycobacterial activity against 1-(2-(4-((5-chloro-6-methylpyridin-3-yl)methylamino)piperidin-1-yl)ethyl)-7-fluoro-1,5-naphthyridin-2(1H)-one resistant Mycobacterium tuberculosis H37Rv harboring DNA gyraseA D89N mutant incubated for 7 days by microdilution method. Background: Broth dilution looks for growth in wells or tubes with falling amounts of substance.

Experiment [2] deals with Mycobacterium tuberculosis. The experiment in a line: Antimycobacterial activity against moxifloxacin resistant Mycobacterium tuberculosis H37Rv harboring DNA gyraseA G88N mutant incubated for 7 days by microdilution method.
The subject of experiment [3] is Mycobacterium tuberculosis. Nature of the experiment: Antimycobacterial activity against 6-((1-(2-(7-chloro-2-oxo-1,8-naphthyridin-1(2H)-yl)ethyl)piperidin-4-ylamino)methyl)-2H-pyrido[3,2-b][1,4]oxazin-3(4H)-one resistant Mycobacterium tuberculosis H37Rv harboring DNA gyraseA A74V mutant incubated for 7 days by microdilution method.
In experiment [4] the test system is Mycobacterium tuberculosis. Nature of the experiment: Ratio of MIC for 6-((1-(2-(7-chloro-2-oxo-1,8-naphthyridin-1(2H)-yl)ethyl)piperidin-4-ylamino)methyl)-2H-pyrido[3,2-b][1,4]oxazin-3(4H)-one resistant Mycobacterium tuberculosis H37Rv harboring DNA gyraseA A74V mutant to MIC for Mycobacterium tuberculosis H37Rv ATCC 27294.
Experiment [5] has as its system Mycobacterium tuberculosis. The experiment in a line: Ratio of MIC for 1-(2-(4-((5-chloro-6-methylpyridin-3-yl)methylamino)piperidin-1-yl)ethyl)-7-fluoro-1,5-naphthyridin-2(1H)-one resistant Mycobacterium tuberculosis H37Rv harboring DNA gyraseA D89N mutant to MIC for Mycobacterium tuberculosis H37Rv ATCC 27294.

In brackets after ≈: the same amount, converted by molar mass.

As a reminder, the MIC is the least concentration at which growth counts as inhibited. A lower MIC goes with inhibition by little substance. Consider `O=C1COc2ccc(CN[C@@H]3CCN(CCn4c(=O)ccc5ncc(Oc6cccnc6)cc54)C[C@@H]3F)nc2N1`, for which the MIC in experiment [1] was over 100 µM; in experiment [2], 0.39 µM (≈ 0.213 µg/mL); in experiment [3], 50 µM (≈ 27.3 µg/mL).

Turning to `O=C1COc2ccc(CNC3CCN(CCn4c(=O)ccc5ccc(Oc6cncnc6)nc54)CC3)nc2N1`, the MIC in experiment [1] was over 100 µM; in experiment [2], 0.06 µM (≈ 0.0317 µg/mL); in experiment [3] it was 50 µM (≈ 26.4 µg/mL). The Ratio in experiment [4] and in experiment [5] was over 25 throughout.

With `O=C(O)c1cn(C2CC2)c2cc(N3CCNCC3)c(F)cc2c1=O` [CIPROFLOXACIN], the MIC in experiment [1] is 16 µM (≈ 5.3 µg/mL); in experiment [2], 8 µM (≈ 2.65 µg/mL); in experiment [3], 0.5 µM (≈ 0.166 µg/mL).

`COc1c(N2C[C@@H]3CCCN[C@@H]3C2)c(F)cc2c(=O)c(C(=O)O)cn(C3CC3)c12` [MOXIFLOXACIN]: the MIC in experiment [1] was found to be 2 µM (≈ 0.803 µg/mL); in experiment [2], 4 µM (≈ 1.61 µg/mL); in experiment [3] it was 0.25 µM (≈ 0.1 µg/mL).

Take `O=C1COc2ccc(CNC3CCN(CCn4c(=O)ccc5ccc(Cl)nc54)CC3)nc2N1`: the MIC in experiment [1] is over 100 µM; in experiment [2], under 0.19 µM; in experiment [3] it was 4 µM (≈ 1.88 µg/mL).

Regarding `O=C1COc2ccc(CNC3CCN(CCn4c(=O)ccc5ccc(Oc6cccnc6)nc54)CC3)nc2N1`, the MIC is over 100 µM in experiment [1], 0.78 µM (≈ 0.412 µg/mL) in experiment [2] and 8 µM (≈ 4.22 µg/mL) in experiment [3]. Besides, the Ratio in experiment [4] and in experiment [5] was over 25 each time.

As for `CO[C@H]1/C=C/O[C@@]2(C)Oc3c(C)c(O)c4c(O)c(c(/C=N/N5CCN(C)CC5)c(O)c4c3C2=O)NC(=O)/C(C)=C\C=C\[C@H](C)[C@H](O)[C@@H](C)[C@@H](O)[C@@H](C)[C@H](OC(C)=O)[C@@H]1C` [RIFAMPIN], the MIC in experiment [2] and in experiment [3] was 0.008 µM (≈ 0.00658 µg/mL) throughout.

Consider `NNC(=O)c1ccncc1` [ISONIAZID], for which the values for the MIC in experiment [1], in experiment [2] and in experiment [3] were 0.03 µM (≈ 0.00411 µg/mL), 0.06 µM (≈ 0.00823 µg/mL) and 0.06 µM (≈ 0.00823 µg/mL), respectively.

On to `Cc1ncc(CNC2CCN(CCn3c(=O)ccc4ncc(F)cc43)CC2)cc1Cl`, for which the MIC was over 100 µM in experiment [1], under 0.19 µM in experiment [2] and 2 µM (≈ 0.86 µg/mL) in experiment [3].
